Tests used:
Format in all cases: in vivo
Test plants [1] = experiment: Post-emergence test; details: greenhouse
Experimental: To produce a suitable preparation of active compound, 1 part by weight of active compound is mixed with the stated amount of solvent, the stated amount of emulsifier is added and the concentrate is diluted with water to the desired concentration.
Test plants of a height of 5-15 cm are sprayed with the preparation of active compounds such that the particular amounts of active compound desired are applied per unit area. The concentration of the spray liquor is chosen such that the particular amounts of active compound desired are applied in 1000 l of water/ha.
After three weeks, the degree of damage to the plants is rated in % damage in comparison to the development of the untreated control.
0%=no effect (like untreated control)

Test plants [2] = experiment: Pre-emergence test; details: greenhouse
Experimental: Pre-Emergence Test [[[…]]] To produce a suitable preparation of active compound, 1 part by weight of active compound is mixed with the stated amount of solvent, the stated amount of emulsifier is added and the concentrate is diluted with water to the desired concentration. Seeds of the test plants are sown in normal soil. After about 24 hours, the soil is sprayed with the preparation of active compound such that the particular amounts of active compound desired are applied per unit area. The concentration of the spray liquor is chosen such that the particular amounts of active compound desired are applied in 1000 l of water/ha. After three weeks, the degree of damage to the plants is rated in % damage in comparison to the development of the untreated control. The figures denote: 0%=no effect (like untreated control) 100%=total destruction

[3] = system: green rice leaf hopper (Nephotettix cincticeps); experiment: Nephotettix test; details: rice seedlings dipped
Experimental: (§1) To produce a suitable preparation of active compound, 1 part by weight of active compound is mixed with the stated amounts of solvent and emulsifier, and the concentrate is diluted with emulsifier-containing water to the desired concentration.
Rice seedlings (Oryza satina) are treated by being dipped into the preparation of active compound of the desired concentration and are populated wraith the green rice leaf hopper (Nephotettix cincticeps) while the leafs are still moist.
After the desired period of time, the kill in % is determined. 100% means that all leaf hoppers have been killed; 0% means that none of the leaf hoppers have been killed.

[4] = system: larvae of the mustard beetle (Phaedon cochleariae); experiment: Phaedon larvae test; details: 100 ppm active compound, Phaedon cochleariae larvae on dipped cabbage leaves
Experimental: Phaedon Larvae Test [[[…]]] To produce a suitable preparation of active compound, 1 part by weight of active compound is mixed with the stated amounts of solvent and emulsifier, and the concentrate is diluted with emulsifier-containing water to the desired concentration. Cabbage leaves (Brassica oleracea) are treated by being dipped into the preparation of active compound of the desired concentration and are populated with larvae of the mustard beetle (Phaedon cochleariae) while the leaves are still moist. After the desired period of time, the kill in % is determined. 100% means that all beetle larvae have been killed; 0% means that none of the beetle larvae have been killed.

[5] = system: white fly (Bemisia tabaci) eggs, larvae and puparia; experiment: Bemisia test; details: active compound concentration 40 ppm, infested cotton plants sprayed
Experimental: Bemisia Test [table] To produce a suitable preparation of active compound, 1 part by weight of active compound is mixed with the stated amounts of solvent and emulsifier, and the concentrate is diluted with water to the desired concentration. Cotton plants (Gossypium hirsutum) which are infested by white fly (Bemisia tabaci) eggs, larvae and puparia are sprayed with the preparation of active compound of the desired concentration. After the desired period of time, the kill in % is determined. 100% means that all animals have been killed; 0% means that none of the animals have been killed.

[6] = system: green peach aphid (Myzus persicae); experiment: Myzus test; details: infested cabbage leaves dipped
Experimental: (§2) Myzus Test [table] To produce a suitable preparation of active compound, 1 part by weight of active compound is mixed with the stated amounts of solvent and emulsifier, and the concentrate is diluted with emulsifier-containing water to the desired concentration. Cabbage leaves (Brassica oleracea) which are heavily infested by the green peach aphid (Myzus persicae) are treated by being dipped into the preparation of active compound of the desired concentration. After the desired period of time, the kill in % is determined. 100% means that all aphids have been killed; 0% means that none of the aphids have been killed.

[7] = system: greenhouse red spider mite (Tetranychus urticae); experiment: Tetranychus test (OP-resistant/dip treatment); details: 1.6 ppm active compound, Tetranychus urticae on dipped bean plants
Experimental: Tetranychus Test (OP-Resistant/Dip Treatment)
as §1
Bean plants (Phaseolus vulgaris) which are heavily infested by all stages of the greenhouse red spider mite (Tetranychus urticae) are dipped into a preparation of active compound of the desired concentration.
After the desired period of time, the effect in % is determined. 100% means that all spider mites have been killed; 0% means that none of the spider mites have been killed.

[8] = system: cotton aphids (Aphis gossypii); experiment: Aphis gossypii test; details: active compound concentration 200 ppm, infested cotton leaves dipped
Experimental: as §2, with “Aphis Gossypii” for “Myzus”, “Cotton” for “Cabbage”, “(Gossypium hirsutuni)” for “(Brassica oleracea)”, “cotton aphids (Aphis gossypii)” for “the green peach aphid (Myzus persicae)”

[9] = active compound concentration 8 ppm

CCc1cc(Br)cc(Cl)c1C1=C(O)C2(CCC(C)CC2)NC1=O (single isomer, unassigned) [Ex. I-a-6]
% damage, Abutilon (Test plants [1]; 60 g of a.i./ha): 70%
% damage, Echinochloa (Test plants [1]; 60 g of a.i./ha): 95%
% damage, Lolium (Test plants [1]; 60 g of a.i./ha): 90%
% damage, Setaria (Test plants [1]; 60 g of a.i./ha): 100%
% damage, Sorghum (Test plants [1]; 60 g of a.i./ha): 90%
% damage, Avena fatua (Test plants [2]; 60 g of a.i./ha): 90%
% damage, Echinochloa (Test plants [2]; 60 g of a.i./ha): 100%
% damage, Lolium (Test plants [2]; 60 g of a.i./ha): 95%
% damage, Veronica (Test plants [2]; 60 g of a.i./ha, Veronica): 100%
% damage, soybean (Test plants [2]; 60 g of a.i./ha): 0%
% damage, wheat (Test plants [2]; 60 g of a.i./ha, wheat): 0%

CCc1cc(Cl)cc(Cl)c1C1=C(O)C2(CCOCC2)NC1=O [Ex. I-a-5]
% damage, Alopecurus (Test plants [1]; 250 g of a.i./ha): 95%
% damage, Avena fatua (Test plants [1]; 250 g of a.i./ha): 100%
% damage, Setaria (Test plants [1]; 250 g of a.i./ha): 100%
% damage, Sinapis (Test plants [1]; 250 g of a.i./ha): 70%

CCOCC(=O)OC1=C(c2c(Cl)cc(Br)cc2CC)C(=O)NC12CCC(C)CC2 (single isomer, unassigned) [Ex. I-b-3]
Kill rate in % after 6^d ([3]; active compound concentration 0.1 ppm): 40%
Kill rate in % after 7d [4]: 100%

CCc1cc(Cl)cc(Br)c1C1=C(O)C2(CCC(OC)CC2)NC1=O (single isomer, unassigned) [Ex. I-a-10]
% damage, Alopecurus (Test plants [1]; 30 g of a.i./ha): 95%
% damage, Avena fatua (Test plants [1]; 30 g of a.i./ha): 95%
% damage, Bromus (Test plants [1]; 30 g of a.i./ha): 90%
% damage, Digitaria (Test plants [1]; 30 g of a.i./ha, Digitaria): 100%
% damage, Lolium (Test plants [1]; 30 g of a.i./ha): 95%
% damage, Setaria (Test plants [1]; 30 g of a.i./ha): 100%
% damage, sugar beet (Test plants [1]; 30 g of a.i./ha): 0%
% damage, Alopecurus (Test plants [2]; 125 g of a.i./ha): 100%
% damage, Avena fatua (Test plants [2]; 125 g of a.i./ha): 90%
% damage, Bromus (Test plants [2]; 125 g of a.i./ha): 90%
% damage, Digitaria (Test plants [2]; 125 g of a.i./ha): 100%
% damage, soybean (Test plants [2]; 125 g of a.i./ha): 0%

CCc1cc(Br)cc(Cl)c1C1=C(OC(=O)C(C)C)C2(CCC(C)CC2)NC1=O (single isomer, unassigned) [Ex. I-b-2]
Kill rate in % after 10^d [5]: 100%
% damage, Digitaria (Test plants [2]; 30 g of a.i./ha): 70%
% damage, Echinochloa (Test plants [2]; 30 g of a.i./ha): 70%
% damage, Lolium (Test plants [2]; 30 g of a.i./ha): 95%
% damage, corn (Test plants [2]; 30 g of a.i./ha, corn): 0%
% damage, soybean (Test plants [2]; 30 g of a.i./ha): 0%

CCc1cc(Cl)cc(Cl)c1C1=C(O)C2(CCC(OC)CC2)NC1=O (single isomer, unassigned) [Ex. I-a-3]
Kill rate in % after 6^d [6, 9]: 85%
% damage, Alopecurus (Test plants [1]; 250 g of a.i./ha): 100%
% damage, Avena fatua (Test plants [1]; 250 g of a.i./ha): 100%
% damage, Sinapis (Test plants [1]; 250 g of a.i./ha): 80%
% damage, Alopecurus (Test plants [2]; 30 g of a.i./ha): 100%
% damage, Avena fatua (Test plants [2]; 30 g of a.i./ha): 70%
% damage, Digitaria (Test plants [2]; 30 g of a.i./ha): 100%
% damage, Lolium (Test plants [2]; 30 g of a.i./ha): 100%
% damage, Setaria (Test plants [2]; 30 g of a.i./ha, Setaria): 100%
% damage, cotton (Test plants [2]; 30 g of a.i./ha, cotton): 0%
% damage, sugar beet (Test plants [2]; 30 g of a.i./ha, sugar beet): 0%

CCc1cc(Cl)cc(Br)c1C1=C(O)C(C)(C)NC1=O [Ex. I-a-11]
Kill rate in % after 6^d ([3]; active compound concentration 10 ppm): 100%
Kill rate in % after 14d [7]: 80%
% damage, Alopecurus (Test plants [1]; 250 g of a.i./ha): 100%
% damage, Setaria (Test plants [1]; 250 g of a.i./ha): 100%
% damage, sugar beet (Test plants [1]; 250 g of a.i./ha): 0%

CCc1cc(Br)cc(Cl)c1C1=C(O)C2(CCC(OC)CC2)NC1=O (single isomer, unassigned) [Ex. I-a-7]
Kill rate in % after 6^d ([6]; active compound concentration 1.6 ppm): 65%
% damage, Abutilon (Test plants [1]; 250 g of a.i./ha): 80%
% damage, Amaranthus (Test plants [1]; 250 g of a.i./ha, Amaranthus): 70%
% damage, Cyperus (Test plants [1]; 250 g of a.i./ha, Cyperus): 80%
% damage, sugar beet (Test plants [1]; 250 g of a.i./ha): 0%
% damage, Avena fatua (Test plants [2]; 125 g of a.i./ha): 95%
% damage, Bromus (Test plants [2]; 125 g of a.i./ha): 100%
% damage, Echinochloa (Test plants [2]; 125 g of a.i./ha): 100%
% damage, Matricaria (Test plants [2]; 125 g of a.i./ha, Matricaria): 80%

CCc1cc(Cl)cc(Cl)c1C1=C(O)C2(CCC(C)CC2)NC1=O (single isomer, unassigned) [Ex. I-a-2]
Kill rate in % after 6^d [8]: 90%
Kill rate in % after 6^d [6, 9]: 95%
% damage, Bromus (Test plants [1]; 125 g of a.i./ha): 90%
% damage, Echinochloa (Test plants [1]; 125 g of a.i./ha): 100%
% damage, Lolium (Test plants [1]; 125 g of a.i./ha): 100%
% damage, Sorghum (Test plants [1]; 125 g of a.i./ha): 100%
% damage, cotton (Test plants [1]; 125 g of a.i./ha, cotton): 0%
